Patent publication US20130253179A1, “Functionalization Processes and Reactants Used in Such Processes Using an Isatoic Anhydride or a Derivative Thereof, Biological Molecules Thus Treated and Kits” (priority 2010, published 2013)

What was measured:
[1] = test system: model oligoribonucleotide (ORN) with 27 bases; experiment: Functionalisation of a model ORN with 27 bases: functionalisation rate and regiospecificity by HPLC/LC-MS after nuclease P1/alkaline phosphatase hydrolysis; type: biochemical; conditions: for Fr (corrected functionalisation rate): ORN 8 nmol; for Fr (corrected functionalisation rate) / External/internal regiospecificity (uncorrected ratio of areas acylated mononucleosides / acylated dinucleotides): compound 30 mM, 1 h at 65° C., 250 mM TEAAc pH 7, 25% DMSO
Source text: For this purpose, a fixed quantity of ORN is reacted with an isatoic anhydride derivative conjugated to a molecule of interest (Cy3 IA Me (13)), under various temperature conditions, duration conditions, reaction medium conditions, etc. HPLC monitoring of the reaction at 260 nm makes it possible to detect the disappearance of the peak corresponding to the initial ORN and the appearance of peaks corresponding to acylated ORN. These products have a greater retention time and have an absorption spectrum corresponding to both that of ORN and that of the fluorescent label.
However, for greater precision on the functionalisation site and to precisely evaluate the functionalisation rate (Fr), the ORN population (labelled and unlabelled) is separated from the excess label by precipitation with acetone/lithium perchlorate or by gel permeation (NAP 5™, GE Health Care. Then the ORNs thus obtained are submitted to hydrolysis with the nuclease P1 (Aldrich, Saint Louis, USA) and with the alkaline phosphatase (Aldrich, Saint Louis, USA), in order to hydrolyse the phosphate diester bonds of ORN.
The ORN functionalisation rate (Fr) is evaluated by measuring: • the area corresponding to the terminal mononucleoside adducts (functionalised at 2′ and at 3′) and the area corresponding to the acylated dinucleosides (functionalised internally on 2′OH) • compared to the area of the peaks corresponding to the four ribonucleosides.
The internal/external regiospecificity of the acylation is evaluated by measuring the relative proportion of the areas corresponding to the: • end mono-nucleotides acylated at 2′ and at 3′ • and di-nucleotides acylated internally on 2′OH • which are easily detectable by HPLC.
The mixture is incubated for 60 minutes at 65° C. in an oven on a rack which is temperature-balanced in advance. An HPLC injection (conditions 3) makes it possible to monitor a formation of a certain quantity of acylated ORN as described in FIG. 6. To eliminate the salts and the excess label, the mixture is then purified on Sephadex NAP 5 gel (GE Health Care, Uppsala, Sweden)) and/or triple precipitation in 1.2 mL of a 180 mM Acetone/LiClO4 75/25 mixture. To finish, the pellet is dried with acetone and is evaporated with the centrifugal evaporator (RCT 60, Jouan, St Herblain, France). The residue is then taken up in 33 μL of a H2O/DMSO 85/15 solution and an HPLC injection (conditions 3) is performed in order to verify the proper elimination of the label. There is added to the mixture 2 μL of nuclease P1 (ref.: N8630 Sigma-Aldrich, St Louis, USA) in 1 U/μl solution in its buffer: 20 mM sodium acetate pH 5.5; 1 mM ZnCl2; 50 mM NaCl and 1 μL of 7 u/μl alkaline phosphatase in water (Ref. P7923-2KU Sigma-Aldrich, St Louis, USA). The medium is left at ambient temperature for 4 to 6 hours. It is then injected into HPLC (conditions 3) in order to verify the total hydrolysis of the ORN and in order to analyse the nature of the fragments obtained in accordance with what was described above and as described in FIG. 6.
The functionalisation rate is evaluated with UV at 260 nm by integration of the clusters corresponding to the acylated dinucleotides and to the acylated nucleosides) relative to the clusters corresponding to the four ribonucleosides. The ratio of the population of acylated dinucleotides to the population of acylated nucleosides is evaluated in the same way in order to evaluate the percentage of functionalisation on the 3′ terminal end.
The functionalisation rate values, presented within the framework of this invention, take into account the correction factor which must be applied according to the molar extinction coefficient at 260 nm of each of the nucleosides and according to whether they are nucleosides or dinucleotides. […]

ODN with 53 bases = experiment: RNA vs DNA chemoselectivity: functionalisation of an ODN with 53 bases; type: biochemical; conditions: compound 30 mM, DMSO/TEAAc buffer 25/75 (250 mM pH 7), 1 h at 65° C.
Description: After precipitation with acetone and hydrolysis with nuclease P1 and alkaline phosphatase, the hydrolysed fragments are analysed by LC-MS, as described in example 3. An example of the chromatograms monitoring the reaction of ODN or ORN with compound 13 is shown in FIG. 9, in which graphs A, B and C respectively represent ORN, ORN functionalised with compound 13 and precipitated, and ORN functionalised with 13, precipitated and hydrolysed. Graphs D, E and F represent the same thing, but with ODN.

[2] = FIG. 6 graph D, share of functionalised adducts

| SMILES | Fr (corrected functionalisation rate) [1] [%] | External/internal regiospecificity (uncorrected ratio of areas acylated mononucleosides / acylated dinucleotides) [1] | corrected functionalisation rate of the ODN (ODN with 53 bases) [%] | acylated dinucleotides (peak 1) [1, 2] [%] | nucleosides acylated at 2′ or at 3′ (peaks 2 and 3) [1, 2] [%] | Fr (corrected functionalisation rate) ([1]; listed as 13) [%] | Fr (corrected functionalisation rate) ([1]; listed as Cy3 IA ME (13)) [%] | corrected functionalisation rate ([1]; compound 15 mM, protocol of example 3) [%] |
| --- | --- | --- | --- | --- | --- | --- | --- | --- |
| Cn1c(=O)oc(=O)c2cc(NC(=O)CCSSCCNC(=O)CCOCCOCCOCCOCCNC(=O)CCCCC3SCC4NC(=O)NC43)ccc21 (centres unmarked) [5Biot PEG4 SS IA Me 24] | 2.8 | 62/38 | 0.1 |  |  |  |  |  |
| CCN1/C(=C\C=C\C2=[N+](CCCCCC(=O)Nc3ccc4c(c3)c(=O)oc(=O)n4C)c3ccc(S(=O)(=O)[O-])cc3C2(C)C)C(C)(C)c2cc(S(=O)(=O)[O-])ccc21.[K+] [Cy3 IA Me 13, 1-methyl 5-Cy3-isatoic anhydride] | 4.5 | 58/42 | 0.1 | 42 | 58 | 4.5 | 4.2 | 2.6 |
